Test results taken from US20230265151A1, “GIP/GLP1 CO-AGONIST COMPOUNDS” (priority 2020, published 2023).
Like-named read-outs stand apart in the source and are kept apart here. *1 amine or outer side, *2 acyl side, *3 side chain or, on linkers, in order; H or OH if unused. Where a SMILES comes first, the peptide text is derived from it. Side-chain parts run from the residue outwards. [ ]: non-standard residue; d: D form. The star is where a group is joined. Decanoyl(10-(4-HOOC-PhO)) = O=C(O)c1ccc(OCCCCCCCCCC(=O)*)cc1; αMePhe(2-F) = C[C@](N)(Cc1ccccc1F)C(=O)O; γGlu = O=C(O)[C@H](CCC(=O)[*:2])N[*:1]; αMeY = C[C@](N)(Cc1ccc(O)cc1)C(=O)O; 4Pal = N[C@@H](Cc1ccncc1)C(=O)O; αMeL = CC(C)C[C@](C)(N)C(=O)O; Orn = NCCC[C@H](N)C(=O)O; AEEA = NCCOCCOCC(=O)O; Aib = CC(C)(N)C(=O)O

Columns and labels:
Type in all cases: cell-based
[1] = molecular target: T1, hGIPR (Homo sapiens, UniProt P48546); assay: Functional cAMP formation (HTRF) in HEK-293 clonal cells expressing hGIPR, 0.1% bovine casein, without or with 1.0% human serum albumin; conditions: for Emax: percent of maximal response to GIP(1-42)NH2; for EC50: hGIPR EC50, nM (SEM, n), geometric mean
T1 construct: expressed in transfected cells
T1 sequence (P48546 22-466): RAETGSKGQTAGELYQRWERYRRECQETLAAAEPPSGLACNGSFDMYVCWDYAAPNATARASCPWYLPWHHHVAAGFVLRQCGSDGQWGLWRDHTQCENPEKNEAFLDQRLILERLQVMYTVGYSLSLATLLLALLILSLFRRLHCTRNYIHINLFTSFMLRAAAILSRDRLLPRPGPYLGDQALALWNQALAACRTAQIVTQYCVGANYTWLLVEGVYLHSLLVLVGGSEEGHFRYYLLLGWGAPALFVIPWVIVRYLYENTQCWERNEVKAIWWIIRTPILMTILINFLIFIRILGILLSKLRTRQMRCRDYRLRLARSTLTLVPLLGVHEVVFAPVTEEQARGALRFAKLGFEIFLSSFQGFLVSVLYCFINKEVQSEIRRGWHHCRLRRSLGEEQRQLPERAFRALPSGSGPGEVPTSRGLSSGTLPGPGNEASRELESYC
How it was run: (§1)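 Cells were stimulated with peptide for 30 min at 37° C, then intracellular cAMP was measured by competitive HTRF (665/620 nm ratio) and converted to nM using a cAMP standard curve. Relative EC50 and Emax came from four-parameter logistic fits of percent maximal response against peptide concentration.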

[2] = molecular target: T2, hGCGR (Homo sapiens, UniProt P47871); assay: Functional cAMP formation (HTRF) in HEK-293 clonal cells expressing hGCGR, 0.1% bovine casein, without or with 1.0% human serum albumin; conditions: hGCGR EC50, nM (SEM, n), geometric mean
T2 construct: expressed in transfected cells
How it was run: as §1

[3] = molecular target: hGLP-1R (Homo sapiens, UniProt P43220); assay: Functional cAMP formation (HTRF) in HEK-293 clonal cells expressing hGLP-1R, 0.1% bovine casein, without or with 1.0% human serum albumin; design: expressed in transfected cells; conditions: for EC50: hGLP-1R EC50, nM (SEM, n), geometric mean
How it was run: as §1

[4] = HEK293, read-out: hGIPR Emax, % ± SEM, 0.1% bovine casein and 1.0% human serum albumin, 37° C.
[5] = 0.1% bovine casein and 1.0% human serum albumin, 37° C.
[6] = cAMP, incubated at 37° C., 0.1% bovine casein (no human serum albumin)

Chain of hGLP-1R (P43220 24-463): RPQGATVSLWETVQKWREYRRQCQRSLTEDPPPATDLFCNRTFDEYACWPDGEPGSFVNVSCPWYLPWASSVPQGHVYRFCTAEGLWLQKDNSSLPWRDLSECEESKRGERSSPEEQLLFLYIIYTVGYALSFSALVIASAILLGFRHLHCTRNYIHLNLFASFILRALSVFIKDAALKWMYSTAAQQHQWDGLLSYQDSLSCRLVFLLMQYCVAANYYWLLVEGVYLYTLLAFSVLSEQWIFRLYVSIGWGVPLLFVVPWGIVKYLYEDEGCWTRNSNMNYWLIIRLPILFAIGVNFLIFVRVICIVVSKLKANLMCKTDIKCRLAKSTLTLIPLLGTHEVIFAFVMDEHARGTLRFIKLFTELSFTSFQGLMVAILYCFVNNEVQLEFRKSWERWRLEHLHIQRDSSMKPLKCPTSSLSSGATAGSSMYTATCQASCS
T2 sequence (P47871 26-477): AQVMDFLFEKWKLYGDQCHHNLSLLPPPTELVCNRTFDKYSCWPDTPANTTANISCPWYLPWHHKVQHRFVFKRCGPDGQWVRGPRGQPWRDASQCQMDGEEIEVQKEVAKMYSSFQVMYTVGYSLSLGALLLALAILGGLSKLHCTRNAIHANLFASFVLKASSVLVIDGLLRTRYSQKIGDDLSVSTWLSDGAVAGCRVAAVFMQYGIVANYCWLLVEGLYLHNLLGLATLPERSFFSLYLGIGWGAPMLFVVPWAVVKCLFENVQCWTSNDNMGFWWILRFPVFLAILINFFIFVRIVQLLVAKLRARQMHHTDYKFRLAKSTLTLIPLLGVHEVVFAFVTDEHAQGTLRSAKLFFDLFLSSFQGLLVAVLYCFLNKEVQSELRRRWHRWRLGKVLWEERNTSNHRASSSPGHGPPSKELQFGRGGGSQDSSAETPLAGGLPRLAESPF

Compound | Emax [1, 4] [%] | Emax ([1]; HEK293, read-out: hGIPR Emax, % ± SEM, cAMP, 37° C., 0.1% bovine casein, arithmetic mean) [%] | EC50 [1, 5] [nM] | EC50 [2, 5] [nM] | EC50 ([2]; cAMP, 37° C., 0.1% bovine casein (no human serum albumin)) [nM] | Emax ([3]; HEK293, read-out: hGLP-1R Emax, % ± SEM, 0.1% bovine casein and 1.0% human serum albumin, 37° C., percent of maximal response to GLP-1(7-36)NH2) [%] | Emax ([3]; HEK293, read-out: hGLP-1R Emax, % ± SEM, cAMP, 37° C., 0.1% bovine casein, percent of maximal response to GLP-1(7-36)NH2, arithmetic mean) [%] | EC50 [3, 5] [nM] | EC50 [1, 6] [nM] | EC50 [2, 6] [nM] | Emax ([3]; HEK293, read-out: hGLP-1R Emax, % ± SEM, percent of maximal response to GLP-1(7-36)NH2, 37° C., 0.1% bovine casein, arithmetic mean) [%] | EC50 [3, 6] [nM]
CC[C@H](C)[C@H](NC(=O)[C@H](CC(C)C)NC(=O)[C@](C)(Cc1ccc(O)cc1)NC(=O)[C@@H](CCC(=O)O)NC(=O)[C@@H](NC(=O)[C@H](Cc1ccccc1)NC(=O)[C@H](CCC(=O)O)NC(=O)C(C)(C)NC(=O)[C@H](CCC(N)=O)NC(=O)[C@H](C)NC(=O)[C@H](CCCCNC(=O)COCCOCCNC(=O)COCCOCCNC(=O)CC[C@H](NC(=O)CCCCCCCCCOc1ccc(C(=O)O)cc1)C(=O)O)NC(=O)[C@H](CCCN)NC(=O)[C@H](CC(=O)O)NC(=O)[C@H](CC(C)C)NC(=O)[C@](C)(CC(C)C)NC(=O)[C@@H](NC(=O)[C@H](CO)NC(=O)[C@H](Cc1ccc(OC)cc1)NC(=O)[C@H](CC(=O)O)NC(=O)[C@H](CO)NC(=O)[C@@H](NC(=O)[C@](C)(Cc1ccccc1F)NC(=O)[C@@H](NC(=O)CNC(=O)[C@H](CCC(=O)O)NC(=O)C(C)(C)NC(=O)[C@@H](N)Cc1ccc(O)cc1)[C@@H](C)O)[C@@H](C)O)[C@@H](C)CC)[C@@H](C)CC)C(=O)N[C@@H](CCCCNC(=O)COCCOCCNC(=O)COCCOCCNC(=O)CC[C@H](NC(=O)CCCCCCCCCOc1ccc(C(=O)O)cc1)C(=O)O)C(=O)NCC(=O)NCC(=O)N1CCC[C@H]1C(=O)N[C@@H](CO)C(=O)N[C@@H](CO)C(=O)NCC(=O)N[C@@H](C)C(=O)N1CCC[C@H]1C(=O)N1CCC[C@H]1C(=O)N1CCC[C@H]1C(=O)N[C@@H](CO)C(N)=O [Example 278] (H-Y[Aib]EGT[αMePhe(2-F)]TSDY(Me)SI[αMeL]LD[Orn]K([AEEA-AEEA-γGlu-Decanoyl(10-(4-HOOC-PhO))])AQ[Aib]EFI[dE][αMeY]LIK([AEEA-AEEA-γGlu-Decanoyl(10-(4-HOOC-PhO))])GGPSSGAPPPS-NH2) | 91.1 | 105 | 1.41 | > 9950 | > 9950 | 121 | 109 | 27 | – | – | – | –
CC[C@H](C)[C@H](NC(=O)[C@H](CCCN)NC(=O)[C@H](CC(=O)O)NC(=O)[C@H](CC(C)C)NC(=O)[C@](C)(CC(C)C)NC(=O)[C@@H](NC(=O)C(C)(C)NC(=O)[C@H](Cc1ccncc1)NC(=O)[C@H](CC(=O)O)NC(=O)[C@H](CO)NC(=O)[C@@H](NC(=O)[C@](C)(Cc1ccccc1F)NC(=O)[C@@H](NC(=O)CNC(=O)[C@H](CCC(=O)O)NC(=O)C(C)(C)NC(=O)[C@@H](N)Cc1ccc(O)cc1)[C@@H](C)O)[C@@H](C)O)[C@@H](C)CC)C(=O)N[C@@H](C)C(=O)N[C@@H](CCC(N)=O)C(=O)NC(C)(C)C(=O)N[C@@H](CCCCNC(=O)COCCOCCNC(=O)COCCOCCNC(=O)CC[C@H](NC(=O)CCCCCCCCCOc1ccc(C(=O)O)cc1)C(=O)O)C(=O)N[C@@H](Cc1ccccc1)C(=O)N[C@H](C(=O)N[C@H](CCC(=O)O)C(=O)N[C@@](C)(Cc1ccc(O)cc1)C(=O)N[C@@H](CC(C)C)C(=O)N[C@H](C(=O)N[C@@H](CCC(=O)O)C(=O)NCC(=O)NCC(=O)N1CCC[C@H]1C(=O)N[C@@H](CO)C(=O)N[C@@H](CO)C(=O)NCC(=O)N[C@@H](C)C(=O)N1CCC[C@H]1C(=O)N1CCC[C@H]1C(=O)N1CCC[C@H]1C(=O)N[C@@H](CO)C(=O)N[C@@H](CCCCNC(=O)COCCOCCNC(=O)COCCOCCNC(=O)CC[C@H](NC(=O)CCCCCCCCCOc1ccc(C(=O)O)cc1)C(=O)O)C(N)=O)[C@@H](C)CC)[C@@H](C)CC [Example 248] (H-Y[Aib]EGT[αMePhe(2-F)]TSD[4Pal][Aib]I[αMeL]LD[Orn]IAQ[Aib]K([AEEA-AEEA-γGlu-Decanoyl(10-(4-HOOC-PhO))])FI[dE][αMeY]LIEGGPSSGAPPPSK([AEEA-AEEA-γGlu-Decanoyl(10-(4-HOOC-PhO))])-NH2; N-terminus assumed) | 91.8 | – | – | > 9950 | – | – | – | 56.7 | 0.0176 | > 9950 | 89.1 | 0.537
